Results taken from US5904915A, “Method of diagnosing pathological state of tumor cells using a diagnostic agent for glycometabolic function” (Nihon Medi-Physics Co., Ltd., priority 1996, dated 1999).
“Also recorded” adds a separate entry of the source. Read-outs that look alike come from different tables or passages of the source. One block for each compound: values may come before it.

Experiments:
LS180 cells [1] = experiment: Time-course accumulation of FDG and AFDG in LS180 tumor cells; assay type: cell-based, human
Description: LS180 cells were stripped off from the petri dish using trypsin, inoculated on a plate having 24 holes at a concentration of 20×10^4 cells/ml and subjected to the uptake experiment after 24 hours. […] Radioactivity of the lysed solution was measured by an Autowell gamma counter (ARC-2000, manufactured by Aloka corporation).

LS180 cells [2] = experiment: Temperature dependence of intracellular accumulation of AFDG; assay type: cell-based, human; details: 60 minutes after administration, 5 μCi
Description: In order to study the temperature dependence of intracellular accumulation of AFDG, an uptake experiment was conducted different from Experiment 1. Cells were suspended in a culture medium at a concentration of 1×10^6 cells/ml and incubated in portions of 1 ml at 4° C. or 37° C. for 15 minutes. Then, 5 μCi of AFDG was added and incubated for 2, 5, 10, 30 and 60 minutes, respectively. At every determined times, cells were centrifuged to make a pellet, which was washed with a cold PBS. After washing twice, the pellet was lysed by 0.2N NaOH solution and assayed for radioactivity.

LS180 cells [3] = experiment: Effect of administered dose of AFDG on its intracellular accumulation; assay type: cell-based, human; details: increase of the dose of AFDG
LS180 cells [4] = experiment: Metabolism of AFDG and FDG in LS180 cells (TLC of metabolites); assay type: cell-based, human
Description: After carrying out an experiment according to Experiment 1, cells were stripped off from the plate using 100 μl of 50% ethanol and the solution was centrifuged at 15000 rpm. A 25 μl aliquot of supernatant was subjected to analysis of metabolites by thin-layer chromatography (TLC). The eluent was acetonitrile/water=95/5, and the carrier was silica gel 60. The plate after development was cut at 5 mm intervals and assayed for radioisotope with a gammer counter. Total radioactivity of respective metabolites were calculated from the ratio of metabolites obtained in TLC.

LS180 cells [5] = experiment: Effect of extracellular glucose concentration on accumulation and metabolism of FDG and AFDG; assay type: cell-based, human
Description: Then, cells were washed three times with a cold PBS, lysed with 50% ethanol and the lysate was assayed for metabolites.

LS180 cells [6] = experiment: Effect of IAA (hexokinase inhibition) on accumulation and metabolism of FDG and AFDG; assay type: cell-based, human
Excerpt: (§1) Then, cells were washed three times with a cold PBS, lysed with 50% ethanol and assayed for metabolites.

LS180 cells [7] = experiment: Effect of DNP on accumulation and metabolism of FDG and AFDG; assay type: cell-based, human
Excerpt: as §1

LS180 cells [8] = experiment: Effect of AFDG administration on accumulation of glucose; assay type: cell-based, human; details: amount used in this experiment
GLUT = experiment: Effect of DNP on rate of uptake of 3-OMG (GLUT transport) in LS180 cells; assay type: cell-based, human
Excerpt: While it is known that 2,4-dinitrophenol, an uncoupling agent for mitochondrion, causes expression of GLUT on cell membrane to normal cells by a transient decrease of intracellular ATP as a trigger, it has not been confirmed that it has a similar effect on tumor cells. Therefore, transport of [H-3]-3-O-methylglucose in the DNP-treated tumor cells was studied for the case in which GLUT was inhibited by cytocharasin B and for the case in which it was not inhibited, respectively. [H-3]-3-O-methylglucose is a D-glucose derivative which is not subjected to metabolism such as phosphorylation after take up into cells and therefore can suitably be used in an experiment for studying transport ability of GLUT. In the case of DNP treatment, accumulation of [H-3]-3-O-methylglucose was increased by about 70% as compared with the case of no treatment (Table 1), and therefore it was considered that the amount of GLUT expressed on the cell membrane was increased by 70% with the treatment by DNP. The increase in amount was by far smaller than the increase described for normal cells. This is due to the fact that the amount of GLUT expressed on the tumor cell membrane is by far greater than the amount for normal cells.
For studying uptake of [H-3 ]-3-O-methylglucose (3-OMG) into cells excluding nonspecific bonding, usually cytocharasin B is used. After incubating 10^6 LS180 cells in a medium containing 200 μM DNP placed in a plate having 24 holes, the medium was changed to a medium containing 5 μCi 3-OMG and 200 μM […], respectively, and additionally 50 μM cytocharasin B or a medium without cytocharasin B and the respective cultures were incubated for 60 seconds. Immediately after, the medium was removed and cells were washed three times with a cold PBS containing 0.1 mM phloretin and lysed with 500 μl of 0.2 N NaOH solution. After lysis, a 200 μl portion was used for quantitative determination of proteins and the remaining 300 μl was mixed with a scintillator and radioactivity was measured by a liquid scintillation counter (LSC 5000, manufactured by Aloka corporation). The taken-up amount of 3-OMG which may be inhibited by cytocharasin B was integrated from the difference in mean values of 10 holes in the plate for 3-OMG uptake without cytocharasin B. The results of the experiment are shown in Table 1.

hexokinase = details: 5 μM IAA, 37° C.; inferred from accumulation of FDG
Excerpt: as §1

mechanism of uptake into cells (LS180 cells [1]; concluded from the experiments): taken up by simple diffusion | presence of FDG and FDG-6P in cells after uptake of AFDG (LS180 cells [4]; 5 minutes after administration): substantially absent | production of FDG-6P from AFDG relative to that from FDG (LS180 cells [4]; 60 minutes after administration): 1.63 times | FDG-6P share of total intracellular radioactivity (sum of AFDG, FDG and FDG-6P) (LS180 cells [4]; 60 minutes after administration of AFDG): about 50% | stability in the extracellular medium (LS180 cells [4]; extracellular medium): stable | velocity of hydrolysis of AFDG compared with phosphorylation of FDG (LS180 cells [4]; intracellular): greater | accumulation of AFDG and that of FDG after administration of AFDG (LS180 cells [4]; time course after 5 minutes): followed a constant course | accumulation of FDG-6P after administration of AFDG (LS180 cells [4]; time course after 5 minutes): increased linearly with passage of time | FDG-6P derived from AFDG in the presence of DNP (LS180 cells [7]; 200 μM DNP, 37° C.): decreased
Compound: CC(=O)OC[C@H]1OC(OC(C)=O)[C@H]([18F])[C@@H](OC(C)=O)[C@@H]1OC(C)=O (stereo partly shown) [AFDG, 1,3,4,6-tetra-O-acetyl-2-[F-18]fluorodeoxyglucose]
accumulation in time course (LS180 cells [1]; LS180 cells, 2 to 60 minutes, 5 μCi): accumulated rapidly in cells in a nonlinear manner | accumulation of AFDG at 4° C. relative to that at 37° C. (LS180 cells [2]): one fourth | change in intracellular accumulation with administered dose (LS180 cells [3]): increased with the increase of the dose of AFDG | hydrolysis of AFDG to FDG in cells (LS180 cells [4]; by esterase, intracellular): quickly hydrolyzed by esterase to FDG and quickly hydrolyzed to form FDG and fast | production of FDG-6P on doubling glucose concentration in medium (LS180 cells [5]; 11.2 mM vs 22.4 mM glucose, 60 minutes): did not change; also recorded: no change was observed; also recorded: substantially not affected | intracellular accumulation on doubling glucose concentration in medium (LS180 cells [5]; 11.2 mM vs 22.4 mM glucose, 60 minutes, after AFDG: accumulation of FDG (hydrolysate)): did not change; also recorded: substantially not affected | intracellular accumulation in the presence of IAA (LS180 cells [6]; 5 μM IAA, 37° C.): remarkably decreased | intracellular accumulation in the presence of DNP (LS180 cells [7]; 200 μM DNP, 37° C.): decreased | accumulation of glucose when AFDG was administered (LS180 cells [8]): not inhibited

Compound: O=[N+]([O-])c1ccc(O)c([N+](=O)[O-])c1 [DNP, 2,4-dinitrophenol]
increase of amount of GLUT expressed on the cell membrane with DNP (GLUT; inferred from 3-OMG accumulation): 70%

Compound: OC[C@H]1OC(O)[C@H]([18F])[C@@H](O)[C@@H]1O (stereo partly shown) [FDG, 2-[F-18]fluorodeoxyglucose, reference compound]
accumulation in time course (LS180 cells [1]): accumulated and increased almost linearly | intracellular accumulation on doubling glucose concentration in medium (LS180 cells [5]): decreased | intracellular accumulation in the presence of IAA (LS180 cells [6]): remarkably decreased | intracellular accumulation in the presence of DNP (LS180 cells [7]): increased | activation at 200 µM (LS180 cells [7]; Homo sapiens, LS180, read-out: increase of uptake of FDG with DNP): ~80%

Compound: O=C(O)CI [IAA, iodoacetate]
hexokinase activity in the presence of IAA (hexokinase): remarkably decreased

Difference relative to control, DNP treatment (GLUT; ls180 cells, 200 µM): 1.71
Compound: CO[C@H]1[C@H](O)[C@@H](CO)OC(O)[C@@H]1O (stereo partly shown) [[H-3]3-OMG, [H-3]-3-O-methylglucose]
Accumulation of [H-3]3-OMG, Difference, DNP treatment (GLUT; Cytocharasin B absent minus present, 200 μM DNP): 3460 dpm/min/100 μg protein | Accumulation of [H-3]3-OMG, Difference, Control (GLUT; Cytocharasin B absent minus present, no DNP): 2014 dpm/min/100 μg protein | Accumulation of [H-3]3-OMG, DNP treatment (GLUT; Cytocharasin B absent, 200 μM DNP): 4763 ± 669 dpm/min/100 μg protein | Accumulation of [H-3]3-OMG, Control (GLUT; Cytocharasin B absent, no DNP): 3235 ± 307 dpm/min/100 μg protein | Accumulation of [H-3]3-OMG, DNP treatment (GLUT; Cytocharasin B present (50 μM), 200 μM DNP): 1303 ± 229 dpm/min/100 μg protein | Accumulation of [H-3]3-OMG, Control (GLUT; Cytocharasin B present (50 μM), no DNP): 1511 ± 231 dpm/min/100 μg protein | increase of accumulation of [H-3]-3-O-methylglucose with DNP treatment (GLUT; compared with no treatment): about 70% | Difference relative to control, Control (GLUT; in parentheses, no DNP): 1.00
